Where two headings read alike, the source gives them in different places.
Assays:
Type in all cases: cell-based
K-562 = experiment: Human tumor cell line growth assay (SRB); conditions: K562, Leukemia, K-562, 48 h; for CC50: read-out: LC50 (the source's name)
786-0 = experiment: Human tumor cell line growth assay (SRB); conditions: Renal, 786-0, 48 h
MOLT-4 = experiment: Human tumor cell line growth assay (SRB); conditions: Homo sapiens; Leukemia, MOLT-4, 48 h
[1] = Human tumor cell line growth assay (SRB); conditions: human, MOLT-4 cells (leukemia), MOLT-4, 48 h, read-out: LC50
[2] = Human tumor cell line growth assay (SRB); conditions: human, HCT-116 cells (colon), HCT-116, 48 h, read-out: LC50
HCT-116 = experiment: Human tumor cell line growth assay (SRB); conditions: Homo sapiens; Colon, HCT-116, 48 h
SW-620 = experiment: Human tumor cell line growth assay (SRB); conditions: Homo sapiens; Colon, SW-620, 48 h
[3] = Human tumor cell line growth assay (SRB); conditions: human, SW-620 cells (colon), SW-620, 48 h
IGR-OV1 = experiment: Human tumor cell line growth assay (SRB); conditions: Homo sapiens, IGROV-1; Ovarian, IGR-OV1, 48 h
[4] = Human tumor cell line growth assay (SRB); conditions: human, IGR-OV1 cells (ovarian), IGR-OV1, 48 h, read-out: LC50
OVCAR-8 = experiment: Human tumor cell line growth assay (SRB); conditions: Ovarian, OVCAR-8, 48 h
CCRF-CEM = experiment: Human tumor cell line growth assay (SRB); conditions: Leukemia, 48 h; for CC50: read-out: LC50 (the source's name)
[5] = Human tumor cell line growth assay (SRB); conditions: human, KM12 cells (colon), KM12, 48 h, read-out: LC50
KM12 = experiment: Human tumor cell line growth assay (SRB); conditions: Homo sapiens; Colon, KM12, 48 h
MDA-MB-468 = experiment: Human tumor cell line growth assay (SRB); conditions: Breast, MDA-MB-468, 48 h; for CC50: read-out: LC50 (the source's name)
TK-10 = experiment: Human tumor cell line growth assay (SRB); conditions: Renal, TK-10, 48 h; for CC50: read-out: LC50 (the source's name)
NCI/ADR-RES = experiment: Human tumor cell line growth assay (SRB); conditions: Ovarian, 48 h
OVCAR-4 = experiment: Human tumor cell line growth assay (SRB); conditions: Homo sapiens; Ovarian, OVCAR-4, 48 h
[6] = Human tumor cell line growth assay (SRB); conditions: human, OVCAR-4 cells (ovarian), OVCAR-4, 48 h, read-out: LC50
ACHN = experiment: Human tumor cell line growth assay (SRB); conditions: Renal, 48 h; for CC50: read-out: LC50 (the source's name)
SN12C = experiment: Human tumor cell line growth assay (SRB); conditions: Renal, 48 h; for CC50: read-out: LC50 (the source's name)
SNB-19 = experiment: Human tumor cell line growth assay (SRB); conditions: Homo sapiens; CNS, SNB-19, 48 h
[7] = Human tumor cell line growth assay (SRB); conditions: human, SNB-19 cells (CNS), SNB-19, 48 h, read-out: LC50
SR = experiment: Human tumor cell line growth assay (SRB); conditions: Homo sapiens, Leukemia, 48 h
[8] = Human tumor cell line growth assay (SRB); conditions: human, SR cells (leukemia), read-out: LC50
SK-MEL-2 = experiment: Human tumor cell line growth assay (SRB); conditions: Homo sapiens; Melanoma, SK-MEL-2, 48 h
[9] = Human tumor cell line growth assay (SRB); conditions: human, SK-MEL-2 cells (melanoma), SK-MEL-2, 48 h, read-out: LC50
A549/ATCC = experiment: Human tumor cell line growth assay (SRB); conditions: Homo sapiens, NSCLC, 48 h
[10] = Human tumor cell line growth assay (SRB); conditions: human, A549/ATCC cells (NSCLC), read-out: LC50
T-47D = experiment: Human tumor cell line growth assay (SRB); conditions: T47D, Breast, 48 h; for CC50: read-out: LC50 (the source's name)
MDA-MB-231/ATCC = experiment: Human tumor cell line growth assay (SRB); conditions: Breast, 48 h; for CC50: read-out: LC50 (the source's name)
MALME-3M = experiment: Human tumor cell line growth assay (SRB); conditions: Homo sapiens, Melanoma, 48 h
[11] = Human tumor cell line growth assay (SRB); conditions: human, MALME-3M cells (melanoma), read-out: LC50
UACC-257 = experiment: Human tumor cell line growth assay (SRB); conditions: Homo sapiens; Melanoma, UACC-257, 48 h
[12] = Human tumor cell line growth assay (SRB); conditions: human, UACC-257 cells (melanoma), UACC-257, 48 h, read-out: LC50
RPMI-8226 = experiment: Human tumor cell line growth assay (SRB); conditions: Homo sapiens; Leukemia, RPMI-8226, 48 h
CAKI-1 = experiment: Human tumor cell line growth assay (SRB); conditions: Renal, CAKI-1, 48 h; for CC50: read-out: LC50 (the source's name)
[13] = read-out: LC50 (the source's name)

Cc1cc2nc3c4cc([N+](=O)[O-])ccc4n(CCN(C)C)c3nc2cc1C [JBA-185, 2-(2,3-dimethyl-9-nitro-6H-indolo[2,3-b]quinoxalin-6-yl)-N,N-dimethylethanamine]
GI50 (K-562): 0.36 µM
CC50 (K-562): > 100 µM
GI50 (786-0): 0.757 µM
LC50 (786-0): 9.56 µM
GI50 (MOLT-4): 0.368 µM
CC50 at 48 h [1]: > 100 µM
CC50 at 48 h [2]: 94.2 µM
GI50 (HCT-116): 0.355 µM
GI50 (SW-620): 0.302 µM
LC50 (50% lethal concentration) at 48 h [3]: > 100 µM
GI50 (IGR-OV1): 0.357 µM
CC50 at 48 h [4]: > 100 µM
GI50 (OVCAR-8): 0.55 µM
CC50 (OVCAR-8; [13]): > 100 µM
GI50 (CCRF-CEM): 0.642 µM
CC50 (CCRF-CEM): > 100 µM
CC50 at 48 h [5]: > 100 µM
GI50 (KM12): 0.567 µM
GI50 (MDA-MB-468): 0.374 µM
CC50 (MDA-MB-468): 5.3 µM
GI50 (TK-10): 0.371 µM
CC50 (TK-10): > 100 µM
GI50 (NCI/ADR-RES): 0.415 µM
CC50 (NCI/ADR-RES; [13]): > 100 µM
GI50 (OVCAR-4): 0.452 µM
CC50 at 48 h [6]: > 100 µM
GI50 (ACHN): 0.316 µM
CC50 (ACHN): 2.46 µM
GI50 (SN12C): 0.479 µM
CC50 (SN12C): > 100 µM
GI50 (SNB-19): 0.493 µM
CC50 at 48 h [7]: > 100 µM
GI50 (SR): 0.25 µM
CC50 at 48 h [8]: > 100 µM
GI50 (SK-MEL-2): 1.04 µM
CC50 at 48 h [9]: 9.02 µM
GI50 (A549/ATCC): 0.387 µM
CC50 at 48 h [10]: 94.4 µM
GI50 (T-47D): 0.499 µM
CC50 (T-47D): > 100 µM
GI50 (MDA-MB-231/ATCC): 0.495 µM
CC50 (MDA-MB-231/ATCC): > 100 µM
GI50 (MALME-3M): 0.542 µM
CC50 at 48 h [11]: 5.1 µM
GI50 (UACC-257): 0.732 µM
CC50 at 48 h [12]: 34.4 µM
GI50 (RPMI-8226): 0.389 µM
GI50 (CAKI-1): 0.251 µM
CC50 (CAKI-1): 7.48 µM

COc1ccc2c(c1)c1nc3cc(C)c(C)cc3nc1n2CCN(C)C [JBA-094, 2-(9-methoxy-2,3-dimethyl-6H-indolo[2,3-b]quinoxalin-6-yl)-N,N-dimethylethanamine]
GI50 (K-562): 0.444 µM
CC50 (K-562): > 100 µM
GI50 (786-0): 1.04 µM
LC50 (786-0): 6.52 µM
GI50 (MOLT-4): 0.42 µM
CC50 at 48 h [1]: 96 µM
CC50 at 48 h [2]: 6.59 µM
GI50 (HCT-116): 0.312 µM
GI50 (SW-620): 0.454 µM
LC50 (50% lethal concentration) at 48 h [3]: 5.53 µM
GI50 (IGR-OV1): 0.396 µM
CC50 at 48 h [4]: 5.41 µM
GI50 (OVCAR-8): 0.531 µM
GI50 (CCRF-CEM): 0.795 µM
CC50 (CCRF-CEM): > 100 µM
CC50 at 48 h [5]: 6.36 µM
GI50 (KM12): 1.05 µM
GI50 (MDA-MB-468): 0.749 µM
CC50 (MDA-MB-468): 6.9 µM
GI50 (TK-10): 1.96 µM
CC50 (TK-10): 6.92 µM
GI50 (NCI/ADR-RES): 0.588 µM
GI50 (OVCAR-4): 1.02 µM
CC50 at 48 h [6]: 5.56 µM
GI50 (ACHN): 0.358 µM
CC50 (ACHN): 3.96 µM
GI50 (SN12C): 0.503 µM
CC50 (SN12C): 5.24 µM
GI50 (SNB-19): 0.719 µM
CC50 at 48 h [7]: 6.34 µM
GI50 (SR): 0.409 µM
CC50 at 48 h [8]: > 100 µM
GI50 (SK-MEL-2): 1.71 µM
CC50 at 48 h [9]: 7.87 µM
GI50 (A549/ATCC): 0.482 µM
CC50 at 48 h [10]: 7.97 µM
GI50 (T-47D): 1.32 µM
CC50 (T-47D): > 100 µM
GI50 (MDA-MB-231/ATCC): 1.14 µM
CC50 (MDA-MB-231/ATCC): 6.39 µM
GI50 (MALME-3M): 1.11 µM
CC50 at 48 h [11]: 5.77 µM
GI50 (UACC-257): 1.5 µM
CC50 at 48 h [12]: 7.97 µM
GI50 (RPMI-8226): 0.64 µM
GI50 (CAKI-1): 0.541 µM
CC50 (CAKI-1): 4.93 µM

Source: US20230312578A1, “6H-INDOLO[2,3-B]QUINOXALINE DERIVATIVES USEFUL IN THERAPY” (Vironova Medical AB, priority 2020, published 2023)
